# Data taken from PMC2824046 (Journal of the American Chemical Society, 2010).
# Biological target: protein phosphatase 2A (PP2A)
# Test: PP2A inhibition assay
# Assay type: biochemical
structure (smiles),measurement,value
"CCCCC/C=C/C=C\C=C/[C@H](O)[C@H](C)[C@H](C/C=C/[C@@H]1OC(=O)C=C[C@@H]1O)OP(=O)(O)O [compound 2, phostriecin]",IC50,0.72 µM
